From US7375124B2, “Use of α-phenylthiocarboxylic and α-phenyloxycarboxylic acids with serum-glucose-lowering and serum-lipid-lowering activity” (Sigma-Tau Industrie Farmaceutiche Riunite S.p.A., priority 2002, dated 2008)
Read-outs that look alike come from different tables or passages of the source. One block for each compound: values may come before it.

Legend:
mPPARαLBD/Gal4DBD = molecular target: T1, mPPARαLBD/Gal4DBD (Mus musculus, UniProt P23204); assay: Transactivation assay mediated by mPPARαLBD/Gal4DBD in COS-7 cells (CAT reporter); assay type: cell-based
T1 construct: expressed in transfected cells; host or cells: COS-7 (monkey kidney fibroblasts)
T1 sequence (P23204 239-466 limits assumed): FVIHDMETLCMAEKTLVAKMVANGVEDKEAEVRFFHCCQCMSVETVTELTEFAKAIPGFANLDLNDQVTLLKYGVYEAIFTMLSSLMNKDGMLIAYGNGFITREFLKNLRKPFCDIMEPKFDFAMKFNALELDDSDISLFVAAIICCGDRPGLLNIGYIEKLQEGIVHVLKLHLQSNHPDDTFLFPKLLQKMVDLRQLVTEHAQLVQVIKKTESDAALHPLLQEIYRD
Text: In this model a transactivation assay is used in which the expression vector mPPARαLBD/Gal4 DBD allows the synthesis by the transfected cell of a chimeric protein, in which the ligand binding domain (LBD) of PPARα is fused with the DNA binding domain (DBD) of the transcription factor GAL4 of yeast [Luckow B. et al., Nucleic Acids Res. 15, 5490 (1987)]. Simultaneously, a plasmid (pG5CAT) is transfected which contains 5 copies of the high-affinity binding site for GAL4 (also called UAS, upstream activating sequence), upstream of the viral promoter E1b fused with the CAT reporter gene [Moya-Camarena S. Y. et al., J. Lipid Res. 40 (8), 1426-33 (1999)]. This model eliminates interference by possible endogenous receptors.
This is due to the fact that the activation of E1b and the production of CAT will occur exclusively thanks to the interaction of GAL4 DBD with its own response element (UAS). Since the transcription factor GAL4 is not expressed in […] cells, transactivation of the reporter gene can take place only when, as a result of the interaction of a ligand with the LBD of PPARα, the chimeric protein PPARα/GAL4 recognises the UAS sequence on the plasmid pG5CAT. Together with the expression vector and the reporter vector the cells were also transfected with the plasmid pCH110 which provides the internal control for the efficiency of transfection and the normalisation of the results.
A monkey kidney fibroblast cell line (COS-7) was used [Elbrecht A. et al., J. Biol. Chem. 274 (12), 7913-22 (1999)]. The cells were co-transfected with the reporter vector, the expression plasmid coding for the fusion protein Gal4 DBD/PPARαLBD and the control vector pCH110. The cells were exposed to increasing concentrations of the study compounds and CAT activity was evaluated. Untreated cells were used as controls.
Monkey kidney fibroblasts (COS-7) were cultured according to the usual cell culture techniques, at 37° C. in a 5% v/v carbon dioxide atmosphere using as the growth medium DMEM (Dulbecco's modified Eagle's medium) modified with 3.7 g/l of sodium bicarbonate, 4 mM L-glutamine, 4.5 g/l of glucose, 1 mM sodium pyruvate and 10% v/v of foetal bovine serum, in the presence of streptomycin 100 μg/ml and penicillin 100 U/ml final.
The cells were co-transfected using the transfection reagent FuGENE6 (Roche), consisting of a defined mixture of lipids capable of complexing the DNA and of transporting it into the cells. Twenty-four hours prior to transfection the cells were plated at a density of 1.2×10^5 cells/well in 12-well plates and maintained at 37° C. in a 5% v/v CO2 atmosphere. […] Briefly, the transfection mixture containing 0.8 μg of the expression vector, 1.6 μg of the reporter vector, 0.8 μg of the control vector and 9 μl of the FuGENE6 reagent per well was added directly to the cells in the presence of culture medium devoid of serum. After 5 hours, the transfection medium was replaced by 1 ml of culture medium complete with serum and antibiotics in the presence or absence of the molecules to be tested at 3 different concentrations (2, 20 and 100 μM). Wy-14,643 (2 μM), a known ligand of PPARα, was used as the positive reference compound.
After 48 hours' incubation at 37° C. in a 5% v/v CO2 atmosphere, the cells were washed twice with 1 ml of phosphate buffer (PBS) and removed mechanically from the wells in TEN buffer (Tris[hydroxymethyl]aminomethane 10 mM pH 8, ethylenediamine-tetraacetic acid 1 mM pH 8, sodium chloride 0.1 M). After centrifuging for 3 minutes at 1000 rpm, the cells were resuspended in 65 μl of lysis buffer (Tris-HCl 0.25 M, pH 8) and then lysed thanks to three rapid freeze-thaw cycles. The insoluble cellular materials (debris) were removed by centrifuging at 15,000 rpm for 15 minutes at 4° C., and the supernatant was recovered and used for the CAT and β-galactosidase activity assays. […]

C57BL/KsJ db/db mouse [1] = conditions: in vivo
Text: (§1) Plasma levels of glucose, insulin, triglycerides, cholesterol, free fatty acids and urea were checked for a well-matched distribution of mice in the treatment groups.
(§2) At the start of treatment the body weights of the mice were checked and arrangements were made for monitoring water and feed consumption.
(§3) In the course of the experiment, serum glucose levels, oral glucose tolerance test (OGTT) findings, a number of lipid status parameters and weight gain were monitored.

C57BL/KsJ db/db mouse [2] = assay: Antidiabetic and serum-lipid-lowering activity in the db/db mouse (Experiments I and II); conditions: Experiment I; for Glucose: blood
Text: as §1, §2, §3

[3] = after 12 days' treatment, feeding state, approx. 15 hours after last treatment
[4] = after 18 days' treatment, fasting 18 hours, 6 hours after last treatment
[5] = after 25 days' treatment, postabsorption, 7.5 hours after last treatment
[6] = after 25 days' treatment, postabsorption, 7.5 hours after last treatment, mean ± S.E.
[7] = after 18 days' treatment, fasting 18 hours, 6 hours after last treatment, mean ± S.E.
[8] = db/db mice, oral twice daily, after 12 days' treatment, feeding state, approx. 15 hours after last treatment, mean ± S.E.

melting point: 73 to 74 °C
Structure (SMILES): COC(=O)C(C)(C)Sc1ccc(OCCc2ccc(Cl)cc2Cl)cc1 [Example 5, methyl 2-[4-(2-(2,4-dichlorophenyl)ethoxy)phenylthio]isobutyrate]

Activation of reporter gene CAT as a percentage of the reference compound (WY-14,643 2 μM = 100%) (mPPARαLBD/Gal4DBD; 2 μM): 98.1% | Activation of reporter gene CAT as a percentage of the reference compound (WY-14,643 2 μM = 100%) (mPPARαLBD/Gal4DBD; 20 μM): 360% | Activation of reporter gene CAT as a percentage of the reference compound (WY-14,643 2 μM = 100%) (mPPARαLBD/Gal4DBD; 100 μM): 462.7%
Structure (SMILES): COC(=O)C(C)(C)Sc1cccc(OCCc2ccc3ccccc3c2)c1 [Example 10, methyl 2-[3-[2-(2-naphthyl)ethoxy]phenylthio]isobutyrato]

Final b.w. (C57BL/KsJ db/db mouse [1]): 34.5 ± 1.0 g | Initial b.w. (C57BL/KsJ db/db mouse [1]): 33.3 ± 0.7 g | Variation % (final b.w.) vs control (C57BL/KsJ db/db mouse [1]): +22% | Variation % (initial b.w.) vs control (C57BL/KsJ db/db mouse [1]): +5%
Structure (SMILES): CC(C)OC(=O)C(C)(C)Oc1ccc(C(=O)c2ccc(Cl)cc2)cc1 [Fenofibrate, fenofibrate, reference compound]
Variation % (glucose) vs control (C57BL/KsJ db/db mouse [2]; [3]): −4% | Variation % (glucose) vs control (C57BL/KsJ db/db mouse [2]; after 12 days' treatment, postabsorption, 8 hours after last treatment): −1% | Variation % (AUC glucose at OGTT) vs control (C57BL/KsJ db/db mouse [2]; after 18 days' treatment, OGTT glucose 3 g/kg): −12% | AUC glucose at OGTT (C57BL/KsJ db/db mouse [2]; after 18 days' treatment, OGTT glucose 3 g/kg, fasting 18 hours, 5 hours after last treatment, mean ± S.E.): 45192 ± 1546 a.u. | Variation % (glucose) vs control (C57BL/KsJ db/db mouse [2]; [4]): +12% | Variation % (HDL-cholesterol) vs control (C57BL/KsJ db/db mouse [2]; after 25 days' treatment): +18% | Variation % (triglycerides) vs control (C57BL/KsJ db/db mouse [2]; after 25 days' treatment): −30% | Glucose (plasma) (C57BL/KsJ db/db mouse [2]; after 25 days' treatment, postabsorption (fasting 9 a.m. to 4.30 p.m.), 7.5 hours after last treatment, mean ± S.E.): 553 ± 30 mg/dL | Variation % (fructosamine) vs control (C57BL/KsJ db/db mouse [2]; [5]): +15% | Variation % (plasma glucose) vs control (C57BL/KsJ db/db mouse [2]; [5]): +21% | Fructosamine (plasma) (C57BL/KsJ db/db mouse [2]; [6]): 0.92 ± 0.02Δ mM | HDL-choles. (plasma) (C57BL/KsJ db/db mouse [2]; [6]): 96.4 ± 4.2 mg/dL | Triglycerides (plasma) (C57BL/KsJ db/db mouse [2]; [6]): 66.5 ± 3.5Δ mg/dl | Glucose (C57BL/KsJ db/db mouse [2]; after 12 days' treatment, postabsorption (fasting 9 a.m. to 5 p.m.), 8 hours after last treatment, mean ± S.E.): 409 ± 11 mg/dL | Glucose (C57BL/KsJ db/db mouse [2]; [7]): 384 ± 20 mg/dL | Glucose (C57BL/KsJ db/db mouse [2]; [8]): 466 ± 8 mg/dL

Variation % (final b.w.) vs control (C57BL/KsJ db/db mouse [1]): +49% | Variation % (initial b.w.) vs control (C57BL/KsJ db/db mouse [1]): +3%
Structure (SMILES): CN(CCOc1ccc(CC2SC(=O)NC2=O)cc1)c1ccccn1 (stereo not shown) [Rosiglitazone, rosiglitazone, reference compound]
Variation % (glucose) vs control (C57BL/KsJ db/db mouse [2]; [3]): −25% | Variation % (glucose) vs control (C57BL/KsJ db/db mouse [2]; [4]): −35% | Variation % (HDL-cholesterol) vs control (C57BL/KsJ db/db mouse [2]; after 25 days' treatment): −20% | Variation % (triglycerides) vs control (C57BL/KsJ db/db mouse [2]; after 25 days' treatment): −54% | Glucose (C57BL/KsJ db/db mouse [2]; [7]): 225 ± 27▪ mg/dl | Glucose (C57BL/KsJ db/db mouse [2]; [8]): 365 ± 64 mg/dL | Final b.w. (C57BL/KsJ db/db mouse [2]; final body weight after 25 days' treatment, postabsorption condition, mean ± S.E.): 42.1 ± 2.5Δ g | Initial b.w. (C57BL/KsJ db/db mouse [2]; initial body weight, postabsorption condition, mean ± S.E.): 32.6 ± 1.4 g
